# Assay results from US5658906A, “Cysteine protease and serine protease inhibitors” (Cephalon, Inc., priority 1996, dated 1997).
# How the values were obtained:
# Calpain I = biological target: T1, Calpain I (Homo sapiens, UniProt P07384); assay: Inhibition and rate of inactivation of calpain I (Succ-Leu-Tyr-MNA hydrolysis); format: biochemical; conditions: mean of three or more independent analyses, corrected for substrate, k2 = kapp(1+[S]/Km), read-out: k2 (second order rate constant of inactivation), A = Calpain I
# T1 construct: Calpain I was purified from human red blood cells; from tissue; host or cells: human red blood cells (packed, outdated)
# T1 sequence (P07384 1-714): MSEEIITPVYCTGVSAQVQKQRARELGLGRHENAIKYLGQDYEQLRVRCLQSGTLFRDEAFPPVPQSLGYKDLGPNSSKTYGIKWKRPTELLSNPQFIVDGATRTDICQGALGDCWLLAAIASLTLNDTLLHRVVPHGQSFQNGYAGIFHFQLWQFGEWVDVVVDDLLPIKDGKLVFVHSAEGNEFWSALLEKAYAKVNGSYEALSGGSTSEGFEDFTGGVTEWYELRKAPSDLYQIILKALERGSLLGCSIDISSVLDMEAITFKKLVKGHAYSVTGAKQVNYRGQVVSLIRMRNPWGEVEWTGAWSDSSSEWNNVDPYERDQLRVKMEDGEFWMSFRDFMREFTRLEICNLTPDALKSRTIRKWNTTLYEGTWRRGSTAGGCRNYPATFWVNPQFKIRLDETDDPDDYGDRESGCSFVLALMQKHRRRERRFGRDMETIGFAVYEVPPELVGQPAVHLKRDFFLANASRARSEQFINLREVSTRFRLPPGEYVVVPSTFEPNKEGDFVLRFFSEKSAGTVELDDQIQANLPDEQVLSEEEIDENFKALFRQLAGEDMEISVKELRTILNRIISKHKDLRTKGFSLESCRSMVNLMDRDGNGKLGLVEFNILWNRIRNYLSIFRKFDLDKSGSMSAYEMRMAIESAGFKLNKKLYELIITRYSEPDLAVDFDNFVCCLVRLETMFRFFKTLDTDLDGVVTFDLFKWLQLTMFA
# T1 sequence (P04632 1-268 partner): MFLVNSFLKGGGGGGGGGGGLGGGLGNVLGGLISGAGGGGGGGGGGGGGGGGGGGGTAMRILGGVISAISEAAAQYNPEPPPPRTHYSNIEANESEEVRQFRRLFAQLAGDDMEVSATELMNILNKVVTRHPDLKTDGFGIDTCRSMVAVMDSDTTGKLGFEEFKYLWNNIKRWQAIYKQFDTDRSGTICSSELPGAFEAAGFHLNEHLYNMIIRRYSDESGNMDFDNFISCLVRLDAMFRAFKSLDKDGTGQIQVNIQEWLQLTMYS
# [1] = tested on: calpain I in Molt-4 cells (α-spectrin breakdown products); assay: Inhibition of calpain activation in intact Molt-4 cells (calpain-generated spectrin breakdown products); format: cell-based; conditions: Homo sapiens, calcium and ionophore (ionomycin), read-out: % Inhibition of BDPs (10 μM)
kinact/KI (Calpain I) [M⁻¹ s⁻¹],SMILES,inhibition at 10 µM [1] [%]
184000,"CC(C)C[C@H](NC(=O)OCc1ccccc1)C(=O)N[C@@H](Cc1ccccc1)C(=O)COn1nnc2cccnc21 [Example 6, 3-[N-[N-Benzyloxycarbonyl-L-leucyl]-3S-4-phenyl-3-amino-2-oxobutyloxy]-3H-triazolo[4,5-b]pyridine]",63
63000,"CC[C@H](NC(=O)[C@H](CC(C)C)NC(=O)OCc1ccccc1)C(=O)COn1nnc2ccccc21 [Example 5, 1-[N-[N-Benzyloxycarbonyl-L-leucyl]-3S-3-amino-2-oxopentyloxy] benzotriazole]",56
122000,"CC(C)C[C@H](NC(=O)OCc1ccccc1)C(=O)N[C@@H](Cc1ccccc1)C(=O)COn1nnc2ccccc2c1=O [Example 28, 1-[N-[N-Benzyloxycarbonyl-L-leucyl]-3S-4-phenyl-3-amino-2-oxobutyloxy]-3-benzotriazin-4-one]",68
150000,"CC(C)C[C@H](NC(=O)OCc1ccccc1)C(=O)N[C@@H](Cc1ccccc1)C(=O)COn1nnc2ccccc21 [Example 3, 1-[N-[N-Benzyloxycarbonyl-L-leucyl]-3S-4-phenyl-3-amino-2-oxobutyloxy]benzotriazole]",67
